Data reported in ChEMBL document CHEMBL3576793, “Restoration of Chemosensitivity in P-Glycoprotein-Dependent Multidrug-Resistant Cells by Dihydro-β-agarofuran Sesquiterpenes from Celastrus vulcanicola” (J Nat Prod, 2015).

How the values were obtained:
[1] = target: T1, ATP-dependent translocase ABCB1 (Homo sapiens, UniProt P08183); experiment: Inhibition of human MDR1 transfected in mouse NIH/3T3 MDR1-G185 cells assessed as daunomycin accumulation at 10 uM after 30 mins by flow cytometry (reference value: 13.2 +/- 1.1%); type: cell-based; design: scale not given: the % may be the effect or the level left; conditions: nih/3t3 mdr1-g185, 0.5 h
[2] = Cytotoxicity against human MDR1 transfected mouse NIH/3T3 MDR1-G185 cells assessed as cell growth at 10 uM after 24 hrs by MTT assay; type: ADME, cell-based, NIH3T3; conditions: mouse NIH/3T3 MDR1-G185 cells transfected with human MDR1, read-out: Activity
[3] = target: T1, ATP-dependent translocase ABCB1; experiment: Inhibition of human MDR1 transfected in mouse NIH/3T3 MDR1-G185 cells assessed as […] daunomycin accumulation after 30 mins by flow cytometry; type: cell-based
[4] = Cytotoxicity against mouse NIH/3T3 cells assessed as cell growth at 10 uM after 24 hrs by MTT assay; type: cell-based, NIH3T3; conditions: read-out: Activity

T1 sequence (P08183 whole entry): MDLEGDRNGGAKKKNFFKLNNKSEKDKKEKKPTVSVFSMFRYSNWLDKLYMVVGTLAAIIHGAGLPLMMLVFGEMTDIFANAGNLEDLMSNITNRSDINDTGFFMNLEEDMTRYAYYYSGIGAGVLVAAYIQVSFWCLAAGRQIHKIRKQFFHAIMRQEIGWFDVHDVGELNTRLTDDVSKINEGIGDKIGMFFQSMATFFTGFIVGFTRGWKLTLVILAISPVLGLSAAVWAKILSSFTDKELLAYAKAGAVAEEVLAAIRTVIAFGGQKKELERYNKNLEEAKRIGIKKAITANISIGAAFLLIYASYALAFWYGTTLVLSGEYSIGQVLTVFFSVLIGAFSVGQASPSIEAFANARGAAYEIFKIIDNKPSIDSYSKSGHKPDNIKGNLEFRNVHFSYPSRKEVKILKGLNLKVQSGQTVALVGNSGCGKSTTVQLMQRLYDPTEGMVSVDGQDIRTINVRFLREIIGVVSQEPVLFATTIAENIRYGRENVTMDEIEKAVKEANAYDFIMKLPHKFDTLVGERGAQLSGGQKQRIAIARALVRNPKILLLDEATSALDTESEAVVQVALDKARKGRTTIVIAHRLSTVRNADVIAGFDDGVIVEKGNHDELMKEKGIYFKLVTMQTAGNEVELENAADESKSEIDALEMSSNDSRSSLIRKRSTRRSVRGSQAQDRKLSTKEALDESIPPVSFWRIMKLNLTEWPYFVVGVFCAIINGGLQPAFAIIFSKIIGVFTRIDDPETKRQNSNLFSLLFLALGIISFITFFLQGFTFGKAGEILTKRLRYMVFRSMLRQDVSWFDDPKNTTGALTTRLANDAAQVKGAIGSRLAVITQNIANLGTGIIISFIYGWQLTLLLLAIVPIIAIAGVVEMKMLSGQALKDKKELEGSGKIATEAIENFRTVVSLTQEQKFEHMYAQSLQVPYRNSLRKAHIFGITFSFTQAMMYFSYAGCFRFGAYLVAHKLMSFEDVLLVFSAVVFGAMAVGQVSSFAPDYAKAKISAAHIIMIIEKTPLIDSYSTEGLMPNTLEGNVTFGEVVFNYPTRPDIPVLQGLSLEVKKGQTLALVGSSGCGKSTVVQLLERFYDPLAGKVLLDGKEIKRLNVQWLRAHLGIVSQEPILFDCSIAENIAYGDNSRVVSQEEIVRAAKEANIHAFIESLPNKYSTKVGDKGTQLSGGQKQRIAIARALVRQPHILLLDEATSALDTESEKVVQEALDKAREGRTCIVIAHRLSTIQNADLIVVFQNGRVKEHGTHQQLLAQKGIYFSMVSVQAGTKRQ

Activity [1] [%] | Ki [3] [nM] | Compound | viability at 24 h, 10 µM [2] [%] | viability at 24 h, 10 µM [4] [%]
73.1 | – | CC(=O)O[C@H]1[C@@H]2[C@@H](OC(=O)c3ccccc3)[C@@]3(OC2(C)C)[C@@](C)([C@@H](O)[C@@H](OC(C)=O)C[C@]3(C)O)[C@H]1OC(=O)c1ccccc1 | – | –
69.9 | – | CC(=O)OC[C@]12[C@@H](OC(=O)c3ccccc3)[C@@H](OC(C)=O)[C@@H]3[C@@H](OC(C)=O)[C@]1(OC3(C)C)[C@@](C)(O)C[C@H](OC(C)=O)[C@@H]2OC(C)=O | – | –
82.2 | 610 | CC(=O)O[C@H]1CC[C@](C)(O)[C@]23OC(C)(C)[C@H]([C@H](OC(=O)/C=C\c4ccccc4)[C@H](OC(=O)c4ccccc4)[C@]12C)[C@H]3OC(C)=O | 64.3 | 51.4
60.3 | – | COc1ccc(CCN(C)CCCC(C#N)(c2ccc(OC)c(OC)c2)C(C)C)cc1OC (configuration not stated) | 80.8 | –
73.2 | – | CC(=O)O[C@@H]1[C@@H]2[C@@H](OC(=O)c3ccccc3)[C@@]3(OC2(C)C)[C@](C)([C@@H]1OC(=O)c1ccccc1)[C@@H](OC(C)=O)[C@@H](O)C[C@]3(C)O | – | –

The next lines start with the molecule.

Compound | Activity [1] [%] | Ki [3] [nM] | viability at 24 h, 10 µM [2] [%] | viability at 24 h, 10 µM [4] [%]
CC(=O)OC[C@]12[C@@H](OC(=O)c3ccccc3)[C@@H](OC(C)=O)[C@@H]3[C@@H](OC(C)=O)[C@]1(OC3(C)C)[C@@](C)(O)C[C@H](OC(=O)c1ccccc1)[C@@H]2OC(C)=O | 73.8 | – | – | –
CC(=O)OC[C@]12[C@@H](OC(=O)c3ccccc3)[C@@H](O)[C@@H]3[C@@H](OC(C)=O)[C@]1(OC3(C)C)[C@@](C)(O)C[C@H](OC(=O)c1ccccc1)[C@@H]2OC(C)=O | 73.2 | – | – | –
CC(=O)O[C@H]1[C@@H](OC(=O)c2ccccc2)C[C@@H](C)[C@]23OC(C)(C)[C@H](C[C@H](OC(=O)c4ccccc4)[C@]12C)[C@H]3OC(=O)c1cccnc1 | 80.1 | 290 | 70.2 | 75.4
CC(=O)OC[C@]12[C@@H](OC(=O)c3ccccc3)C[C@@H]3[C@@H](OC(C)=O)[C@]1(OC3(C)C)[C@@](C)(O)C[C@H](OC(=O)c1ccccc1)[C@@H]2OC(C)=O | 73.6 | – | – | –
CC(=O)OC[C@]12[C@@H](OC(=O)c3ccccc3)[C@@H](OC(C)=O)[C@@H]3[C@@H](OC(=O)c4ccccc4)[C@]1(OC3(C)C)[C@@](C)(O)C[C@H](OC(C)=O)[C@@H]2OC(C)=O | 79.7 | 780 | 71.4 | 64.4
CC(=O)OC[C@]12[C@@H](OC(=O)c3ccccc3)[C@@H](OC(C)=O)[C@@H]3C[C@]1(OC3(C)C)[C@H](C)C[C@H](OC(C)=O)[C@@H]2OC(C)=O | 68.2 | – | – | –
CC(=O)O[C@H]1C[C@](C)(O)[C@]23OC(C)(C)[C@H]([C@H](OC(=O)/C=C/c4ccccc4)[C@H](OC(=O)c4ccccc4)[C@]2(C)[C@H]1OC(C)=O)[C@H]3O | 85.1 | 420 | 78.4 | 69
CC(=O)O[C@H]1[C@@H](OC(=O)c2ccccc2)[C@]2(C)[C@@H](O)[C@@H](OC(C)=O)C[C@](C)(O)[C@@]23C[C@@H]1C(C)(C)O3 | 37 | – | – | –
CC(=O)OC[C@@]12[C@@H](OC(C)=O)CC[C@](C)(O)[C@]13OC(C)(C)[C@H](C[C@@H]2OC(=O)c1ccccc1)[C@H]3OC(C)=O | 72.4 | – | – | –
